# Assay results published in patent US7960415B2, “Caspase inhibitors and uses thereof” (Vertex Pharmaceutical Incoporated, priority 2003, dated 2011).
# Legend:
# rat cortical neurons = assay: Hypoxia-induced apoptosis of rat cortical neurons; format: cell-based, Wistar rat; conditions: Cortical neurone, 95% N2/5% CO2, Cell Death Detection ELISA (DNA fragmentation)
# Procedure: Cortical neurons are dissociated from Wistar rat embryos (E17) by a modification of the procedure of Rogers et al. 1997, Brain Res. Bulletin, 44:131. Briefly, cerebral cortices are isolated aseptically from 15-20 Wistar rat embryos. A cell suspension is prepared by mincing the cerebral cortices and digesting them with papain. Cells are washed with ovomucoid enzyme inhibitor and DNaseI and plated onto Poly-D lysine coated plates in high glucose DMEM containing 10% heat-inactivated fetal calf serum, L-glutamine, penicillin and streptomycin. The yield of neurons is […] per embryo and they are 80-90% viable as assessed by Trypan blue exclusion.
# The neurons are cultured in complete medium at 37° C. in a normal atmosphere for 48 hours prior to the hypoxia experiments. For hypoxia, the normal cell medium is replaced by oxygen-depleted serum-free medium. Cells are incubated in an atmosphere of 95% N2/5% CO2 for various lengths of time. Compounds are dissolved in DMSO at 100 mM then diluted in medium and added to the culture from time=0. The level of apoptosis is measured using a Cell Death Detection ELISA kit (Roche) which detects DNA fragmentation. Plates are read at 405 nm. Controls included cells cultured in aerobic conditions in serum-containing medium (+serum) and cells cultured in aerobic conditions in serum-deprived medium (−serum).
# Jurkat E6.1 cells = assay: Anti-Fas induced apoptosis assay; format: cell-based; conditions: Homo sapiens, anti-Fas antibody CH-11 10 ng/ml, 16-18 hrs, DNA fragmentation
# Source text: Cellular apoptosis may be induced by the binding of Fas ligand (FasL) to its receptor, CD95 (Fas). CD95 is one of a family of related receptors, known as death receptors, which can trigger apoptosis in cells via activation of the caspase enzyme cascade. The process is initiated by the binding of the adapter molecule FADD/MORT-1 to the cytoplasmic domain of the CD-95 receptor-ligand complex. Caspase-8 then binds FADD and becomes activated, initiating a cascade of events that involve the activation of downstream caspases and subsequent cellular apoptosis. Apoptosis can also be induced in cells expressing CD95 e.g., the Jurkat E6.1 T cell lymphoma cell line, using an antibody, rather than FasL, to crosslink the cell surface CD95. Anti-Fas-induced apoptosis is also triggered via the activation of caspase-8. This provides the basis of a cell based assay to screen compounds for inhibition of the caspase-8-mediated apoptotic pathway.
# Jurkat E6.1 cells are cultured in complete medium consisting of RPMI-1640 (Sigma No)+10% foetal calf serum (Gibco BRL No. 10099-141)+2 mM L-glutamine (Sigma No. G-7513). The cells are harvested in log phase of growth. 100 ml of cells at 5-8×10^5 cells/ml are transferred to sterile 50 ml Falcon centrifuge tubes and centrifuged for 5 minutes at 100×g at room temperature. The supernatant is removed and the combined cell pellets resuspended in 25 ml of complete medium. The cells are counted and the density adjusted to 2×10^6 cells/ml with complete medium.
# The test compound is dissolved in dimethyl sulfoxide (DMSO)(Sigma No. D-2650) to give a 100 mM stock solution. This is diluted to 400 μM in complete medium, then serially diluted in a 96-well plate prior to addition to the cell assay plate.
# 100 μl of the cell suspension ([…]) is added to each well of a sterile 96-well round-bottomed cluster plate (Costar No. 3790). 50 μl of compound solution at the appropriate dilution and 50 μl of anti-Fas antibody, clone CH-11 (Upstate, Cat No. 1 544 675) at a final concentration of 10 ng/ml, are added to the wells. Control wells are set up minus antibody and minus compound but with a serial dilution of DMSO as vehicle control. The plates are incubated for 16-18 hrs at 37° C. in 5% CO2 and 95% humidity.
# Apoptosis of the cells is measured by the quantitation of DNA fragmentation using a ‘Cell Death Detection Assay’ from Roche diagnostics, No. 1544 675. After incubation for 16-18 hrs the assay plates are centrifuged at 100×g at room temperature for 5 minutes. 150 μl of the supernatant are removed and replaced by 150 μl of fresh complete medium. The cells are then harvested and 200 μl of the lysis buffer supplied in the assay kit are added to each well. The cells are triturated to ensure complete lysis and incubated for 30 minutes at 4° C. The plates are then centrifuged at 1900×g for 10 minutes and the supernatants diluted 1:20 in the incubation buffer provided. 100 μl of this solution is then assayed according to the manufacturer's instructions supplied with the kit. OD405 nm is measured 20 minutes after addition of the final substrate in a SPECTRAmax Plus plate reader (Molecular Devices). OD405 nm is plotted versus compound concentration and the IC50 values for the compounds are calculated using the curve-fitting program SOFTmax Pro (Molecular Devices) using the four parameter fit option.
# [1] = system: IL-1β secretion from human whole blood; assay: Inhibition of IL-1β secretion from whole blood; format: cell-based; conditions: human whole blood diluted 1:2, LPS 5 ng/ml, 18 hours, ELISA
# Procedure: Human blood is freshly drawn from healthy donors and diluted 1:2 in PBS. To 500 μl of diluted blood […] of prediluted test compound in RPMI medium and […] LPS (5 ng/ml final concentration on the plate) are added (LPS, Serotype 0111:B4, Sigma L3012). After stimulation for 18 hours supernatants are collected and assayed for IL-1β levels using the appropriate ELISA kit (R&D systems).
IC50 (Jurkat E6.1 cells) [nM],IC50 [1] [nM],Structure (SMILES),IC50 (rat cortical neurons) [nM]
< 500,< 500,"CC[C@@H](C(=O)N[C@@H](CC(=O)O)C(=O)COc1c(F)c(F)cc(F)c1F)n1cccc(NC(C)=O)c1=O [Compound 1, (S,S)-3-[2-(3-Acetylamino-2-oxo-2H-pyridin-1-yl)-butyrylamino]-4-oxo-5-(2,3,5,6-tetrafluoro-phenoxy)-pentanoic acid]",1000 to 10000
< 500,< 500,"CCC(=O)Nc1cccn([C@@H](CC)C(=O)N[C@@H](CC(=O)O)C(=O)COc2c(F)c(F)cc(F)c2F)c1=O [Compound 2, (S,S)-4-Oxo-3-[2-(2-oxo-3-propionylamino-2H-pyridin-1-yl)-butyrylamino]-5-(2,3,5,6-tetrafluoro-phenoxy)-pentanoic acid]",< 1000
< 500,500 to 5000,"CC[C@@H](C(=O)N[C@@H](CC(=O)O)C(=O)COc1c(F)c(F)cc(F)c1F)n1cccc(NC(=O)C2CC2)c1=O [Compound 4, (S,S)-3-{2-[3-(Cyclopropanecarbonyl-amino)-2-oxo-2H-pyridin-1-yl]-butyrylamino}-4-oxo-5-(2,3,5,6-tetrafluoro-phenoxy)-pentanoic acid]",1000 to 10000
< 500,< 500,"CC[C@@H](C(=O)N[C@@H](CC(=O)O)C(=O)COc1c(F)c(F)cc(F)c1F)n1cccc(NC(=O)C(C)C)c1=O [Compound 5, (S,S)-3-[2-(3-Isobutyrylamino-2-oxo-2H-pyridin-1-yl)-butyrylamino]-4-oxo-5-(2,3,5,6-tetrafluoro-phenoxy)-pentanoic acid]",< 1000
< 500,< 500,"CC[C@@H](C(=O)N[C@@H](CC(=O)O)C(=O)COc1c(F)c(F)cc(F)c1F)n1cccc(NC(=O)c2ccco2)c1=O [Compound 7, (S,S)-3-(2-{3-[(Furan-2-carbonyl)-amino]-2-oxo-2H-pyridin-1-yl}-butyrylamino)-4-oxo-5-(2,3,5,6-tetrafluoro-phenoxy)-pentanoic acid]",1000 to 10000
< 500,< 500,"CC[C@@H](C(=O)N[C@@H](CC(=O)O)C(=O)COc1c(F)c(F)cc(F)c1F)n1cccc(NC(=O)c2ccccc2)c1=O [Compound 11, (S,S)-3-[2-(3-Benzoylamino-2-oxo-2H-pyridin-1-yl)-butyrylamino]-4-oxo-5-(2,3,5,6-tetrafluoro-phenoxy)-pentanoic acid]",< 1000
< 500,500 to 5000,"CC[C@@H](C(=O)N[C@@H](CC(=O)O)C(=O)COc1c(F)c(F)cc(F)c1F)n1cc(C(F)(F)F)cc(NC(C)=O)c1=O [Compound 13, (S,S)-3-[2-(3-Acetylamino-2-oxo-5-trifluoromethyl-2H-pyridin-1-yl)-butyrylamino]-4-oxo-5-(2,3,5,6-tetrafluoro-phenoxy)-pentanoic acid]",< 1000
< 500,< 500,"CC[C@@H](C(=O)N[C@@H](CC(=O)O)C(=O)COc1c(F)c(F)cc(F)c1F)n1cccc(NC(=O)OC)c1=O [Compound 17, (S,S)-3-[2-(3-Methoxycarbonylamino-2-oxo-2H-pyridin-1-yl)-butyrylamino]-4-oxo-5-(2,3,5,6-tetrafluoro-phenoxy)-pentanoic acid]",< 1000
< 500,–,"CCC(=O)Nc1cccn([C@@H](C)C(=O)NC(CC(=O)O)C(=O)CF)c1=O (stereo partly drawn) [Compound 25, (S)-5-Fluoro-4-oxo-3-[2-(2-oxo-3-propionylamino-2H-pyridin-1-yl)-propionylamino]-pentanoic acid]",–
500 to 2000,–,"C[C@@H](C(=O)NC(CC(=O)O)C(=O)CF)n1cccc(NC(=O)c2ccccc2)c1=O (stereo partly drawn) [Compound 26, (S)-3-[2-(3-Benzoylamino-2-oxo-2H-pyridin-1-yl)-propionylamino]-5-fluoro-4-oxo-pentanoic acid]",–
< 500,–,"C[C@@H](C(=O)NC(CC(=O)O)C(=O)CF)n1cccc(NC(=O)c2c(Cl)cccc2Cl)c1=O (stereo partly drawn) [Compound 27, (S)-3-{2-[3-(2,6-Dichloro-benzoylamino)-2-oxo-2H-pyridin-1-yl]-propionylamino}-5-fluoro-4-oxo-pentanoic acid]",–
500 to 2000,500 to 5000,"C[C@@H](C(=O)NC(CC(=O)O)C(=O)CF)n1cccc(NC(=O)Cc2ccccc2)c1=O (stereo partly drawn) [Compound 28, (S)-5-Fluoro-4-oxo-3-[2-(2-oxo-3-phenylacetylamino-2H-pyridin-1-yl)-propionylamino]-pentanoic acid]",–
< 500,–,"CC[C@@H](C(=O)NC(CC(=O)O)C(=O)CF)n1cccc(NC(=O)c2ccccc2)c1=O (stereo partly drawn) [Compound 30, (S)-3-[2-(3-Benzoylamino-2-oxo-2H-pyridin-1-yl)-butyrylamino]-5-fluoro-4-oxo-pentanoic acid]",1000 to 10000
< 500,–,"CC[C@@H](C(=O)NC(CC(=O)O)C(=O)CF)n1cccc(NC(=O)c2c(Cl)cccc2Cl)c1=O (stereo partly drawn) [Compound 31, (S)-3-{2-[3-(2,6-Dichloro-benzoylamino)-2-oxo-2H-pyridin-1-yl]-butyrylamino}-5-fluoro-4-oxo-pentanoic acid]",1000 to 10000
< 500,–,"CC[C@@H](C(=O)NC(CC(=O)O)C(=O)CF)n1cccc(NC(=O)c2ccccn2)c1=O (stereo partly drawn) [Compound 32, (S)-5-Fluoro-4-oxo-3-(2-{2-oxo-3-[(pyridine-2-carbonyl)-amino]-2H-pyridin-1-yl}-butyrylamino)-pentanoic acid]",–
< 500,–,"CC[C@@H](C(=O)NC(CC(=O)O)C(=O)CF)n1cccc(NC(=O)Cc2ccccc2)c1=O (stereo partly drawn) [Compound 33, (S)-5-Fluoro-4-oxo-3-[2-(2-oxo-3-phenylacetylamino-2H-pyridin-1-yl)-butyrylamino]-pentanoic acid]",–
< 500,–,"CC[C@@H](C(=O)NC(CC(=O)O)C(=O)CF)n1cccc(NC(=O)Cc2cccc(C)c2)c1=O (stereo partly drawn) [Compound 34, (S)-5-Fluoro-4-oxo-3-{2-[2-oxo-3-(2-m-tolyl-acetylamino)-2H-pyridin-1-yl]-butyrylamino}-pentanoic acid]",1000 to 10000
< 500,–,"CCC[C@@H](C(=O)NC(CC(=O)O)C(=O)CF)n1cccc(NC(=O)CC)c1=O (stereo partly drawn) [Compound 35, (S)-5-Fluoro-4-oxo-3-[2-(2-oxo-3-propionylamino-2H-pyridin-1-yl)-pentanoylamino]-pentanoic acid]",1000 to 10000
< 500,–,"CC[C@@H](C(=O)NC(CC(=O)O)C(=O)CF)n1cc(C)cc(NC(=O)Cc2ccccc2)c1=O (stereo partly drawn) [Compound 37, (S)-5-Fluoro-3-[2-(5-methyl-2-oxo-3-phenylacetylamino-2H-pyridin-1-yl)-butyrylamino]-4-oxo-pentanoic acid]",1000 to 10000
